According to article PMC8123306, “Identification of Novel Inhibitors of Escherichia coli DNA Ligase (LigA)” (Molecules, 2021):
Where two headings read alike, the source gives them in different places.

Molecular target: T1, EC-LigA (Escherichia coli DNA ligase LigA) (Escherichia coli, UniProt P15042)
T1 construct: purchased NEB
Assay: in vitro ligase assay (nicked DNA substrate, denaturing PAGE)
Assay type: biochemical
Conditions: for inhibition of EC-LigA (result in words): concentrations up to 3333 µM; for extent of inhibition reached (complete or partial): highest concentration tested 3333 µM; for extent of ligation in the presence of small molecule: at all small molecule concentrations tested (up to 3333 µM), about 50% ligation without small molecule
Protocol: A 50 bp nicked DNA substrate was designed and prepared by annealing a 5′ hexachlorofluorescein (HEX) labelled, 3′ hydroxyl 20 nt single stranded oligonucleotide (20Top) and an unlabelled, 5′ phosphate 30 nt single stranded oligonucleotide (30Top) to a complementary unlabelled 50 nt single stranded oligonucleotide (50Bot) (Figure 4A). Incubation of this nicked DNA substrate with EC-LigA in the presence of NAD^+ cofactor should lead to phosphodiester bond formation between the 3′ hydroxyl of 20Top and the 5′ phosphate of 30Top to produce a 50 bp double stranded DNA product. The ligation reaction can be evaluated by resolving the 50 nt 5′ HEX labelled single stranded DNA and the 20 nt 5′ HEX labelled 20Top single stranded DNA by denaturing polyacrylamide gel electrophoresis (PAGE). The inhibitory activity of small molecules on EC-LigA activity can then be assessed by comparing the extent of ligation (the percentage of 50 nt 5′ HEX labelled single stranded DNA produced) in the absence of small molecule to the extent of ligation in the presence of small molecule. Small molecule inhibitors of EC-LigA will reduce the percentage of 50 nt 5′ HEX labelled single stranded DNA produced.
Figure 4 In vitro screening of candidate EC-LigA small molecule inhibitors. (A) A schematic of the in vitro ligation assay. A 50 bp nicked DNA substrate was prepared by annealing a 5′ hexachlorofluorescein (HEX) labelled, 3′ hydroxyl 20 nt single stranded oligonucleotide (20Top, blue) and an unlabelled, 5′ phosphate 30 nt single stranded oligonucleotide (30Top) to a complementary unlabelled 50 nt single stranded oligonucleotide (50Bot). Subsequent ligation of 20Top and 30Top, by EC-LigA produced a 50 bp double stranded DNA product comprising 5′ HEX labelled 50 nt DNA (50Top, green) and the complementary unlabelled 50 nt DNA 50Bot. (B) Representative 10% (w/v) denaturing PAGE of in vitro ligase assays performed with 120 nM nicked DNA substrate, 30 nM EC-LigA and 26 µM NAD^+ in reaction buffer (30 mM Tris HCl, pH 8.0, 4 mM MgCl2, 1 mM DTT, and 50 µg/mL BSA) in the presence of increasing concentrations of geneticin (0–3333 µM) or chlorhexidine (0–3333 µM) at room temperature for 5 min. Blue and green triangles mark the HEX labelled 20Top (substrate) and 50Top (product) DNA species, respectively. Gels were quantitated using ImageJ and the mean percentage 50Top DNA product was plotted against small molecule concentration. Error bars represent the standard error of the mean for a minimum of two experimental repeats. […] (D) As for (B) but for increasing concentrations of 5-azacytidine (0–3333 µM) or imidazo[1,2-a]pyridine-7-C (0–3333 µM). (E) As for (B) but for increasing concentrations of bestatin (0–3333 µM) or 2-(aminomethyl)imidazole (0–3333 µM).
Quenched reactions were heat-denatured at 100°C for 3 min and placed on ice. Reaction products were resolved by 10% (w/v) denaturing PAGE (10% (w/v) polyacrylamide gels containing 20% formamide and 7 M urea). Inclusion of formamide in the polyacrylamide gels aided maintenance of single-stranded species during electrophoresis. Gels were visualised using a fluorescence-imager (Fuji FLA-5000) using an excitation wavelength of 532 nm. Digitised images were quantitated using ImageJ software (NIH) and the percentage of 20Top (substrate) and 50Top (product) in each lane was calculated. Data were fit to a three-parameter IC50 inhibition function: y=Ymax/1+(x/IC50)^n
In this equation, y is the percentage of 50Top (product) at small molecule inhibitor concentration x; Ymax is the theoretical maximal percentage of 50Top (product) that can be formed, IC50 is the concentration of small molecule inhibitor at half Ymax, and n is the Hill slope factor.

[1] = 120 nM nicked DNA, 30 nM EC-LigA, 26 µM NAD+, room temperature, 5 min, three-parameter fit, read-out: IC50

T1 sequence (P15042 whole entry): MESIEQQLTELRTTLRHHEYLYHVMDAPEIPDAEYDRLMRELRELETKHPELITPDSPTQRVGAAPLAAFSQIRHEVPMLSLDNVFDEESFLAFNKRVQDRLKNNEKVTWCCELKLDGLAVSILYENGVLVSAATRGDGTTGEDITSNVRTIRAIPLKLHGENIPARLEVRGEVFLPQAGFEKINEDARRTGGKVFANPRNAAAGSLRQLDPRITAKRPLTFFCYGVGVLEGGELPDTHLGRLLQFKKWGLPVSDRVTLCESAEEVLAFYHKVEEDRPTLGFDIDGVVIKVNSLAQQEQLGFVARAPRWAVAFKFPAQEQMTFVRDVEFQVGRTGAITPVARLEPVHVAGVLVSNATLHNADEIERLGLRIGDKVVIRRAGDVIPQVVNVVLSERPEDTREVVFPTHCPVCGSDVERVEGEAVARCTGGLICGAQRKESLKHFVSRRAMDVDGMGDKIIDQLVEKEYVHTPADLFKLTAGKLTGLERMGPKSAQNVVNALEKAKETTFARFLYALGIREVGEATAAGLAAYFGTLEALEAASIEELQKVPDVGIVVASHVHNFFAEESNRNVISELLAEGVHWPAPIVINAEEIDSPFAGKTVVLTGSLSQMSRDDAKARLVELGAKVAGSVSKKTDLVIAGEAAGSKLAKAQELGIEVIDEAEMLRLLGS

Compound: NCc1ncc[nH]1 [2-(aminomethyl)imidazole]
- IC50 [1]: 872 ± 248 µM
- IC50 (apparent IC50, read-out: IC50): 870 µM
- inhibition of EC-LigA (result in words): inhibited the ligation reaction in a dose-dependent manner
- extent of inhibition reached (complete or partial): inhibition was only partial

Compound: Nc1ncn([C@@H]2O[C@H](CO)[C@@H](O)[C@H]2O)c(=O)n1 [5-azacytidine, reference compound]
- extent of ligation in the presence of small molecule: approximately 50%
- inhibition of EC-LigA (result in words): do not inhibit EC-LigA

Compound: [H]/N=C(\N/C(=N/[H])NCCCCCCNC(=N)NC(=N)Nc1ccc(Cl)cc1)Nc1ccc(Cl)cc1 [Chlorhexidine, chlorhexidine, reference compound]
- IC50 [1]: 11 µM
- inhibition of EC-LigA (result in words): inhibited the ligation reaction in a dose-dependent manner
- extent of inhibition reached (complete or partial): Complete inhibition of ligation was observed

Compound: CN[C@@H]1[C@@H](O)[C@@H](O[C@@H]2[C@@H](O)[C@H](O[C@H]3O[C@H]([C@@H](C)O)[C@@H](O)[C@H](O)[C@H]3N)[C@@H](N)C[C@H]2N)OC[C@]1(C)O [Geneticin, geneticin, reference compound]
- IC50 [1]: 2600 ± 85.4 µM
- inhibition of EC-LigA (result in words): inhibited the ligation reaction in a dose-dependent manner
- extent of inhibition reached (complete or partial): Complete inhibition of ligation was observed

Compound: N[C@@H](CCC(=O)N[C@@H](CS)C(=O)NCC(=O)O)C(=O)O [Glutathione, glutathione]
- IC50 (IC50, 120 nM nicked DNA, 30 nM EC-LigA, 26 µM NAD+, room temperature, 5 min, three-parameter fit): 1523 ± 10.1 µM
- IC50 (IC50, as stated in the text, apparent IC50): 1520 µM
- inhibition of EC-LigA (result in words): inhibited the ligation reaction in a dose-dependent manner
- extent of inhibition reached (complete or partial): Complete inhibition of ligation was observed

Compound: O=C(NCNC(=O)NC1C(=O)NC(=O)N1CO)NC1C(=O)NC(=O)N1CO (centres unmarked) [Imidazolidinyl urea, imidazolidinyl urea]
- IC50 [1]: 38.5 µM
- inhibition of EC-LigA (result in words): inhibited the ligation reaction in a dose-dependent manner
- extent of inhibition reached (complete or partial): Complete inhibition of ligation was observed

Compound: CC(C)C[C@H](NC(=O)[C@@H](O)[C@H](N)Cc1ccccc1)C(=O)O [bestatin, reference compound]
- extent of ligation in the presence of small molecule: approximately 50%
- inhibition of EC-LigA (result in words): do not inhibit EC-LigA

Compound: O=C(O)c1ccn2ccnc2c1 [imidazo[1,2-a]pyridine-7-C, imidazo[1,2-a]pyridine-7-carboxylic acid]
- extent of ligation in the presence of small molecule: approximately 50%
- inhibition of EC-LigA (result in words): do not inhibit EC-LigA
